Results from patent publication US11465989B2, “Guanidine compounds and use thereof” (IMMUNOMET THERAPEUTICS INC., priority 2014, dated 2022).
Counter-ions that a name gives are not always drawn.

Key:
A549 cell = assay: In vitro combination study with GDC0941 on A549 cell; format: cell-based
Method: (§1) A549, H1975 (CRL5908, ATCC) or U937 cell (CRL1593.2™, ATCC) lines were cultured in RPMI 1640 media (Lifetechnologies, CA) with supplement of 10% FBS and antibiotic-antimycotic (Lifetechnologies, CA). Dasatinib (Combi-Blocks, San Diego, Calif.) is Bcr-Abl-tyrosine kinase inhibitor and Src family tyrosine kinase inhibitor approved for CML treatment. GDC094 (Selleckchem, Houston, Tex.) is a pan-PI3K inhibitor and effective in various cancer cells. H1975 or A549 cells were dissociated from culture plate using 0.5% trypsin-EDTA (Lifetechnologies, CA) and were suspended. U937 cells were spun down using centrifugation. […]
(§2) Among four concentrations of the compounds of present invention, the highest concentration was set to IC80 and the lowest concentration was approximately IC30. […] 100 μl of DMSO was added after removing MTT solution from each well, and were read by VICTOR X3 Multilabel Counter at the wavelength of 550 nm.
(§3) For the analysis of U937 cell viability, 20 μl of Celltiter96® AQueous one solution (MTS, Promega, Madison, Wis.) were added to each well, and plates were incubated at 37° C. and 5% CO2. After 2 hours later, plates read by VICTOR X3 Multilabel Counter at the wavelength of 490 nm. The combination index (CI value) was calculated using Calcusyn (Biosoft, UK).

A549 cells = assay: In vitro combination study with Dasatinib on A549 cell; format: cell-based; conditions: in combination with 0.05 μM of Dasatinib, 72-hour treatment
Method: as §1, §2, §3

SK-MEL-28 cells = assay: Cytotoxicity in low glucose condition (MTT); format: cell-based; conditions: Homo sapiens, SK-MEL-28, 0.75 mM glucose, 72 hours, read-out: SK-MEL-28 0.75 mM glucose Cell viability (IC50 ia)
From the text: The inhibition of oxidative phosphorylation (OXPHOS) is not cytotoxic to cells in normal glucose condition, because it is postulated that normal cells have compensatory mechanism under energy stress conditions such as low glucose. However OXPHOS inhibitors show cytotoxic effect on cells in the glucose deprived condition (BirsoyK, 2014). The glucose deprived condition is observed in tumor microenvironment potentially due to poor angiogenesis. Therefore the OXPHOS inhibitors may show anti-cancer effect on cancer cells in low glucose condition that may depict tumor microenvironment.
The compounds of the present invention were evaluated their cytotoxicity in SK-MEL-28, melanoma with 0.75 mM glucose supplement. The cytotoxic effect is compared with the cytotoxicity caused by phenformin. The cytotoxicity in low glucose condition is correlated with inhibition of oxygen consumption in mitochondria.
SK-MEL-28 (HTB-72) is a melanoma cell line obtained from ATCC (MA) and cultured in RPMI 1640 media (Lifetechnologies, CA) with supplement of 10% FBS and antibiotic-antimycotic (Lifetechnologies, CA). RPMI 1640 (-Glucose) was used to prepare low glucose media and 0.75 mM glucose was supplied with D-(+)-glucose solution from Sigma. SK-MEL-28 cells were separated from culture plate using 0.5% trypsin-EDTA and 5,000 cells were plated in 96-well plate with low glucose media. After incubation at 37° C. for 24 hour, 5% CO2, the cells were treated with the compounds of present invention in FBS-free media for 72 hours. The cytotoxicity was measured by the MTT (AMRESCO, OH) assay. NADH-dependent cellular oxidoreductase reduces MTT to its insoluble […] with purple color. The enzyme depends on cell number or energy state of cells. 10 μl of 5 mg/ml MIT solution was added to each well of the assay plate and skip the well for blank. The plate was incubated at 37° C. and 5% CO2 for 2 hours. The MTT solution was removed from each well and 100 μl of DMSO was added. The plate was read by VICTOR X3 Multilabel Counter at the wavelength of 550 nm. In Table 2, the levels of IC50 are evaluated by the following criteria.

H1975 cell = assay: In vitro combination study with Dasatinib on H1975 cell; format: cell-based; conditions: 0.2 μM of Dasatinib, 8 μM or 40 μM of Example 1, 40 μM or 200 μM of Example 104
Method: as §1, §2, §3

SK-MEL-239 tumor cells = assay: In vivo xenograft model using SK-MEL-239 cell; design: species or system mice
Method: The compounds of the present invention were evaluated in vivo using xenograft human cancer model in mice. The compounds of invention were administrated orally or interperitoneal injection. Tumor cell lines were cultured in vitro as monolayer culture. Using female BALB/c nude mice with immune system compromised, each mouse was inoculated subcutaneously at the right flank with tumor cells for tumor development. The treatment was started when the tumor size reaches approximately 100 mm^3
The SK-MEL-239 tumor cell line was maintained in vitro as monolayer in RPMII 640 medium supplemented with 10% heat inactivated fetal bovine serum, 100 U/ml penicillin and 100 μg/ml streptomycin, and L-glutamine (2 mM) at 37° C. in an atmosphere of 5% CO2 in air. The tumor cells were routinely subcultured twice weekly with 0.5% trypsin-EDTA treatment. The cells growing in an exponential growth phase were harvested and counted for tumor cell inoculation.
Female BALB/c nude mice aged 6-8 weeks and weighing approximately 18-22 g were purchased from Vital River. Each mouse was inoculated subcutaneously at the right flank with SK-MEL-239 tumor cells (1×10^7) in 0.1 ml of PBS for tumor development. The treatment was started, when the tumor size reaches approximately 100 mm^3. 100 mg/kg of Phenformin and 15 mg/kg of Vemurafenib were administered via oral gavage twice daily and 100 mg/kg HLPOI (HL176001001) was administered once daily for 21 days. Tumor volumes were measured twice a week in two dimensions using a caliper, and the volume was expressed in mm^3 using the formula: V=0.5×a×b^2, where a and b were the long and short diameters of the tumor, respectively. The T/C value (in percentage) was an indication of antitumor effect. T and C were the mean volumes of the treated and control groups, respectively.

[1] = Dosing 100 mg/kg, once daily, Day 28

## N=C(N)NC(=N)NCCc1ccc(Cl)c(Cl)c1 [Example 1, N-1-(3,4-dichloro)phenethylbiguanide hydrochloride]
A549 cell
  CI value (combination index): lower than 1
A549 cells
  CI value (combination index): 0.289
SK-MEL-28 cells
  IC50: 5 to 10 µM
H1975 cell
  combination therapy effect with Dasatinib: low combination therapy effect
SK-MEL-239 tumor cells; 100 mg/kg, Phenformin twice daily, Example 1 once daily
  tumor volume compared to the control group: significant reduction of tumor volume
SK-MEL-239 tumor cells; [1]
  T/C (Day 28, %): 65.4%
  Tumor Volume (Day 28, mm^3, a): 1,869 ± 82 mm^3
SK-MEL-239 tumor cells; in combination with 15 mg/kg of Vemurafenib
  tumor volume compared to the single administration of Vemurafenib: reduced the tumor volume
